Results reported in patent US20080306133A1, “INTRANASAL ADMINISTRATION OF ASENAPINE AND PHARMACEUTICAL COMPOSITIONS THEREFOR” (priority 2007, published 2008).
Structures can show the parent of a compound that is named as a salt.

Assays:
Solubility in water = type: physicochemical; conditions: pH of about 4.0 to about 5.0
[1] = oral dosage form; cited from earlier work
[2] = 10 mg/day (5 mg twice daily); randomised, double-blind, placebo-controlled trials; cited from earlier work

solubility (Solubility in water) | SMILES | bioavailability [1] | efficacy in the treatment of schizophrenia as assessed by the Positive and Negative Symptoms Scale (PANSS) [2]
~10000 µg/mL | CN1CC2c3ccccc3Oc3ccc(Cl)cc3C2C1 (stereo not drawn) [Asenapine maleate] |  | 
 | CN1C[C@@H]2c3ccccc3Oc3ccc(Cl)cc3[C@H]2C1 (relative stereo) [Asenapine, trans-5-chloro-2-methyl-2,3,3a,12b-tetrahydro-1H-dibenz[2,3:6,7]oxepino[4,5-c]pyrrole] | < 1% | effective
